{
  "source": "patent US8039013B2",
  "about": "“Synergistic fungidical active substance combinations” (Bayer CropScience AG, priority 2004, dated 2011)",
  "test_system": "Pyrenophora teres",
  "assay": "Pyrenophora teres test (barley)/shoot treatment, field experiment",
  "format": "in vivo, Pyrenophora teres on barley",
  "details": "shoot treatment after flag leaf emergence, 62.5 g/ha, scoring long-term effect, 41 days post-application",
  "procedure": "Pyrenophora teres Test (Barley)/shoot Treatment, Field Experiment\nTo prepare a suitable preparation of active substance, a “commercially available” formulation of active substance or active substance combination is diluted with water to give the desired concentration.\nThe active substance preparation is applied at the application rate stated, after the flag leaf has emerged.\nThe evaluation is carried out at the point in time at which the disease symptoms are complete and readily recognizable. In this context, 0% means an efficacy which corresponds to that of the control, while an efficacy of 100% means that no disease is observed.\nThe expected efficacy in % of the untreated control was calculated using the equation\nIn this equation, x and y mean the efficacy—expressed in % of the untreated control—which the two products achieve when applied separately. If the actual efficacy of the active substance combination exceeds the value for the expected efficacy (E) as calculated by the above formula, then the effect is superadditive, i.e. a synergistic effect exists.",
  "data": [
    {"compound": "Cn1cc(C(=O)Nc2ccc(F)cc2-c2ccc(Cl)c(Cl)c2)c(C(F)F)n1", "note": "[III-23, N-(3′,4′-dichloro-5-fluoro-1,1′-biphenyl-2-yl)-3-(difluoromethyl)-1-methyl-1H-pyrazole-4-carboxamide]", "values": [
      {"measurement": "Efficacy in % found", "result": 40, "unit": "%"}
    ]}
  ]
}
